{
  "source": "patent US20230149419A1",
  "about": "“COMPOSITION FOR PREVENTING OR TREATING NEUROINFLAMMATORY DISEASES, COMPRISING CHLORPROMAZINE” (GliaCellTech Inc., priority 2020, published 2023)",
  "key": {"[1]": {"tested_on": "REV-ERBα protein in primary microglia from wild-type mice", "experiment": "REV-ERBα protein expression in primary microglia (western blotting), wild-type", "format": "cell-based, mouse", "experimental": "Effects were analyzed in the experimental group not treated with chlorpromazine on the obtained microglia and the experimental group treated with chlorpromazine at a dose of 0.5 μM. For analysis of REV-ERBα protein expression levels, western blotting was carried out. Specifically, primary microglia were lysed in a 1% Triton X-100 lysis buffer (1% Triton X-100, 250 mM sucrose, 1 mM EDTA, 1 mM phenylmethylsulfonyl fluoride, and 50 mM NaCl in 20 mM Tris-HCl, pH 7.4) with 1×protease and phosphatase inhibitors (Thermo Fisher Scientific) and 0.1 M dithiothreitol (Sigma-Aldrich). The cell lysates were separated by sodium dodecyl sulfate-polyacrylamide gel electrophoresis and transferred to polyvinylidene fluoride membranes. The membranes were incubated with the appropriate primary antibodies, and bound antibodies were detected by species-specific, horseradish peroxidase-conjugated secondary antibodies. Chemiluminescence detection was performed to analyze the protein bands of interest."}, "wild-type mice": {"tested_on": "wild-type mice", "experiment": "Y-maze test, wild-type mice", "format": "in vivo, mouse", "settings": "for Y-maze Alternation % / Y-maze No. of Arm entry: chlorpromazine 0.25 mg/kg i.p., mean±SEM", "experimental": "Specifically, the Y-maze was used to evaluate spatial working memory. The assay was conducted in white plastic arms of a Y-shaped maze. A mouse was placed in the center of the maze and was allowed to freely explore the arms for 5 min. The experiment was recorded with EthoVision software (Noldus). The number of arm entries and the number of triads were analyzed to calculate the percentage of alternation by dividing the number of three consecutive arm entries (triads) by the number of possible triads×100 (total arm entries−2).\nAn examination was made to see whether LPS-induced inflammation causes memory decline and chlorpromazine reverses the LPS-induced inflammation in disease animal models. To analyze memory and behavior performance, the Y-maze test as in Example 4 was conducted."}, "[2]": {"tested_on": "primary microglia from wild-type mice", "experiment": "IL-1β secretion after LPS and inflammasome activation (nigericin/ATP), wild-type microglia", "format": "cell-based, mouse", "settings": "chlorpromazine 0.5 μM 30 min, LPS 1 μg/mL 3 h", "experimental": "(§1) Primary microglia were obtained from wild-type mice and Psen2^N141I/+ mice with Alzheimer's disease. Specifically, brains were excised from neonatal mice 1 to 3 days old and cells were obtained therefrom. The cells were cultured in Dulbecco's modified Eagle's medium (DMEM, Corning) supplemented with 10% heat-inactivated fetal bovine serum (HI-FBS, Hyclone) and 1% penicillin-streptomycin (Hyclone). Primary microglia were isolated in vitro by tapping after 12 days of culturing. Purity of primary microglia was estimated by immunostaining with an antibody against Iba-1, which is a microglial marker.\n(§2) IL-1β is a cytokine released from an activated inflammasome complex in microglia. For secretion of the cytokine, additional treatment with a drug for inducing activation of the inflammasome complex is necessary following LPS-induced inflammation. […] Application of the test groups thus obtained could divide groups 5 to 8 of Example 5-2 into 10 subgroups according to treatment with nigericin and ATP."}, "[3]": {"tested_on": "primary microglia from Psen2^N141I/+ mice with Alzheimer's disease", "experiment": "LPS-induced inflammatory cytokine secretion in primary microglia (ELISA), Psen2 mutation", "format": "cell-based, mouse", "experimental": "as §1\n(§3) In this regard, the primary microglia were preincubated with or without 0.5 μM chlorpromazine for 30 min before LPS treatment. Anti-inflammatory effects were compared and analyzed between the test groups."}, "[4]": {"tested_on": "primary microglia from wild-type mice", "experiment": "LPS-induced cytokine mRNA expression in primary microglia (qRT-PCR), wild-type", "format": "cell-based, mouse", "experimental": "as §1, §3\nThe culture of each group was measured for microglial mRNA expression levels of the target cytokines by qRT-PCR (quantitative RT-PCR). Specifically, RNA was isolated from the microglia and cDNA was synthesized using an ImProm-II Reverse Transcriptase kit (Promega). PCR primers were commercially available (Cosmo Genetech). qRT-PCR was performed using Taq Polymerase (Invitrogen) and mouse cDNA-specific primers listed in Table 6, below. In addition, TOPreal™ qPCR 2×PreMIX (SYBR Green with low ROX) (Enzynomics) was used. Amplification (50 cycles) was performed for 50 cycles with all primers in a CFX96 Real-Time System (Bio-Rad). Actb was used as the reference genes for normalization."}, "[5]": {"tested_on": "primary microglia from Psen2 mutation mouse model of Alzheimer's disease", "experiment": "IL-1β secretion after LPS and inflammasome activation (nigericin/ATP), Psen2 mutation microglia", "format": "cell-based", "settings": "for IL-1β secreted: chlorpromazine 30 min, LPS 1 μg/mL 3 h", "experimental": "as §1, §2"}, "[6]": {"tested_on": "Psen2^N141I/+ Alzheimer's disease mice", "experiment": "Serum cytokine levels after low-concentration LPS injection, Psen2 mutation mice", "quoted_text": "To investigate neuroinflammation at various concentrations of LPS, blood was extracted from cheek veins in the wild-type mice in group 2 and the mouse model of Alzheimer's disease in group 4 20 hours after the injection of LPS. The sera obtained by centrifugation were quantitatively analyzed for IL-6, TNFα, CCL2, CXCL1, and CCL5 by using ELISA kit (R&D Systems) according to the manufacturer's instruction. In addition, the same procedure was conducted for the wild-type mice without LPS injection of group 1 and the Psen2^N141I mutation mouse model of Alzheimer's disease of group 3 to obtain sera which were then analyzed for the proteins by using the ELISA kit according to the manufacturer's instruction.\nThe wild-type mice and the Psen2 mutation mouse model of Alzheimer's disease obtained in Example 1 were intraperitoneally injected with chlorpromazine (0.25 mg/body weight kg) at 14:00 and then with such a low concentration of LPS (0.35 μg/kg) as to be ineffective for inflammation in wild-type mice at 18:00 (Zeitgeber time light-on at 11:00 and 07:00). After 20 hours, the mice were monitored for inflammatory responses and memory behavior. The concentration of chlorpromazine (0.25 mg/body weight kg) used in this assay is tens- to hundreds-fold lower than those conventionally used as an antipsychotic (25 mg/injection, 3 times/day).\nAfter the experiment conducted as in the scheme of FIG. 11A, the wild-type and the Psen2^N141I/+ Alzheimer's disease mice, both intraperitoneally injected with LPS, were analyzed for inflammatory response according to chlorpromazine treatment as measured for serum levels of the circadian clock-controlled cytokines (IL-6, CXCL1, CCL2, and CCL5) by ELISA as in Example 2."}, "[7]": {"settings": "wild-type/LPS(+)/CPZ(+) (Group 44), LPS 0.35 μg/kg"}, "[8]": {"settings": "wild-type/LPS(−)/CPZ(+) (Group 42)"}, "[9]": {"settings": "KI/+ microglia, LPS 1 μg/mL 12 h, preincubated 0.5 μM chlorpromazine 30 min (Group 8)"}, "[10]": {"settings": "WT microglia, LPS 1 μg/mL 12 h, 0.5 μM chlorpromazine (Group 6)"}, "[11]": {"settings": "Alzheimer's disease model mice, chlorpromazine 0.25 mg/kg i.p., LPS 0.35 μg/kg i.p., 20 h after LPS (Group 40)"}},
  "data": [
    {"smiles": "CN(C)CCCN1c2ccccc2Sc2ccc(Cl)cc21", "note": "[CPZ, 3-(2-chloro-10H-phenothiazin-10-yl)-N,N-dimethyl-propan-1-amine]", "values": [
      {"measurement": "REV-ERBα protein expression", "setting": "[1]; WT microglia, no LPS, 0.5 μM chlorpromazine (Group 28), mean±SEM", "value": "0.956 ± 0.096", "unit": "fold"},
      {"measurement": "REV-ERBα protein expression level (in words)", "setting": "[1]; wild-type microglia, group 28", "value": "no effect"},
      {"measurement": "memory performance, arm alternation in Y-maze (in words)", "setting": "wild-type mice; wild-type mice, chlorpromazine alone (group 42) or with LPS (group 44)", "value": "normal memory performance"},
      {"measurement": "Y-maze Alternation %", "setting": "wild-type mice; [7]", "value": "64.333 ± 3.175", "unit": "%"},
      {"measurement": "Y-maze No. of Arm entry", "setting": "wild-type mice; [7]", "value": "17.889 ± 1.136"},
      {"measurement": "Y-maze Alternation %", "setting": "wild-type mice; [8]", "value": "66.667 ± 4.681", "unit": "%"},
      {"measurement": "Y-maze No. of Arm entry", "setting": "wild-type mice; [8]", "value": "20.167 ± 1.537"},
      {"measurement": "IL-1β secreted", "setting": "[2]; wild-type microglia (Group 15), Nig(+)/ATP(−), nigericin 10 μM 40 min", "value": 857.639, "unit": "pg/mL"},
      {"measurement": "IL-1β secreted", "setting": "[2]; wild-type microglia (Group 17), Nig(−)/ATP(+), ATP 5 mM 40 min", "value": 1251.571, "unit": "pg/mL"},
      {"measurement": "Inflammatory cytokine secreted CCL2", "setting": "[3]; [9]", "value": 734.064, "unit": "pg/mL"},
      {"measurement": "Inflammatory cytokine secreted CCL5", "setting": "[3]; [9]", "value": 804.394, "unit": "pg/mL"},
      {"measurement": "Inflammatory cytokine secreted CXCL1", "setting": "[3]; [9]", "value": 924.907, "unit": "pg/mL"},
      {"measurement": "Inflammatory cytokine secreted IL-6", "setting": "[3]; [9]", "value": 2724.458, "unit": "pg/mL"},
      {"measurement": "Inflammatory cytokine secreted TNF-α", "setting": "[3]; [9]", "value": 1532.733, "unit": "pg/mL"},
      {"measurement": "production of IL-6, CXCL1, CCL2, and CCL5 (in words)", "setting": "[3]; Psen2 mutation microglia, groups 7 vs 8, chlorpromazine 0.5 μM, LPS", "value": "decrease the production"},
      {"measurement": "production of TNF-α (in words)", "setting": "[3]; across all the groups (WT and KI/+ microglia), chlorpromazine 0.5 μM, LPS", "value": "no impacts"},
      {"measurement": "Inflammatory cytokine expression Ccl2 (mRNA)", "setting": "[4]; [10]", "value": 0.907, "unit": "fold"},
      {"measurement": "Inflammatory cytokine expression Ccl5 (mRNA)", "setting": "[4]; [10]", "value": 1.113, "unit": "fold"},
      {"measurement": "Inflammatory cytokine expression Cxcl1 (mRNA)", "setting": "[4]; [10]", "value": 0.968, "unit": "fold"},
      {"measurement": "Inflammatory cytokine expression Tnf (mRNA)", "setting": "[4]; [10]", "value": 1.066, "unit": "fold"},
      {"measurement": "Inflammatory cytokine expression Il-6 (mRNA)", "setting": "[4]; WT microglia, LPS 1 μg/mL 12 h, 0.5 μM chlorpromazine (Group 6), normalized to Actb", "value": 0.947, "unit": "fold"},
      {"measurement": "mRNA levels of circadian clock-controlled cytokines (in words)", "setting": "[4]; wild-type microglia, groups 5 and 6, LPS", "value": "not affected"},
      {"measurement": "IL-1β secreted", "setting": "[5]; Psen2 mutation microglia (Group 20), Nig(+)/ATP(−), nigericin 10 μM 40 min", "value": 946.122, "unit": "pg/mL"},
      {"measurement": "IL-1β secreted", "setting": "[5]; Psen2 mutation microglia (Group 22), Nig(−)/ATP(+), ATP 5 mM 40 min", "value": 1186.118, "unit": "pg/mL"},
      {"measurement": "production of IL-1β (in words)", "setting": "[5]; across all the groups (WT and Psen2 mutation microglia), LPS plus nigericin or ATP", "value": "no impacts"},
      {"measurement": "Inflammatory cytokine secreted CCL2 (serum)", "setting": "[6]; [11]", "value": 107.403, "unit": "pg/mL"},
      {"measurement": "Inflammatory cytokine secreted CCL5 (serum)", "setting": "[6]; [11]", "value": 93.240, "unit": "pg/mL"},
      {"measurement": "Inflammatory cytokine secreted CXCL1 (serum)", "setting": "[6]; [11]", "value": 173.999, "unit": "pg/mL"},
      {"measurement": "Inflammatory cytokine secreted IL-6 (serum)", "setting": "[6]; [11]", "value": 44.280, "unit": "pg/mL"},
      {"measurement": "Inflammatory cytokine secreted TNF-α (serum)", "setting": "[6]; [11]", "value": 71.248, "unit": "pg/mL"},
      {"measurement": "production of the circadian clock-controlled cytokines in serum (in words)", "setting": "[6]; Psen2 mutation mice, group 40 vs 39, LPS 0.35 μg/kg", "value": "remarkably repressed"}
    ]}
  ]
}
